Experiment [1] concerns B.st. spores. Briefly: Antibiotic detection test in spiked milk, borate/succinate culture of Example 6 (Table 4). The format is cell-based, Bacillus (Geobacillus) Stearothermophilus. On the set-up: key to Color 1 / Color 2: Color result 1 and 2 is a negative result; Color result 1 and 2 is a negative result; 3 is a borderline result; 4 and 5 is a positive result; 4 and 5 is a positive result. Conditions: for % Pos (Color 2) / Color 2: after 16 hours at room temperature; for % Pos (Color 1) / Color 1: immediately after test completion. Here is the method: BCP/Borate/Succinate Solution was prepared by adding 3.8 grams of Borate and 6 grams Succinate to 100 mL of reverse osmosis/deionized water (RO/DI Water) in 125 mL flask. 50 milligrams of BCP was added to a 50 mL conical tube and 5 mL of Borate/Succinate solution was added to the 50 milligrams BCP and mixed.
To prepare media 5 grams glucose and 1 gram Mueller Hinton Broth was dissolved in 100 mL RO/DI Water. 1.2 mL of a 0.01 mg/mL solution of trimethoprim in RO/DI Water was prepared and added to the media. A 20 mL of BCP/Borate/Succinate was added to the media and the media was sterile filtered through a 0.45 micron filter and then cooled to 4 degrees C.
Agar was prepared by combining 0.3 grams Difco Bacto-Agar (Item #0140-01), 0.225 NaCl and 17.485 RO/DI Water. The mixture was heated to 95° C. and then removed from the heat and allowed to cool to 75° C. Next 6 mL of media (prepared as described above with BCP/Tris) was added to the agar and mixed for 5 minutes. The mixture was cooled to 57° C. and 1 mL spore solution (concentration of 1 billion cfu/mL) was added and mixed together for 5 minutes. 0.200 mL was dispensed into the bottom of each of the vials.
In test operation 200 microliters of various milk sample, spiked with known concentrations of antibiotics, were pipetted into test vials and incubated for the prescribed time (in this test 2 hours 10 minutes) and prescribed temperature (64 degrees C.+/−2 degrees C.). Incubation was in the Charm I Inctronic incubator. Results were recorded immediately after test completion (Color 1) and after being left at room temperature for 16 hours (Color 2). Results listed are in parts per billion (ppb). 4 samples were run at each concentrations except for raw negative milk (16 samples) and 3 ppb pen G (2 samples) and amoxicillin (2 samples). Abbreviations are penicillin G (PenG); sulfamethazine (SMZ); sulfadimethoxine (SDM); tylosin (TY); gentamicin (G); oxytetracycline (OT); pirlimycin (Pirl); amoxicillin (Amox); ampicillin (Amp); cloxacillin (Clox); ceftiofur sodium (Ceft); cephaprin (Ceph); tilmicosin (Til); sulfadoxine (SDN); neomycin (Neo). Color result 1 and 2 is a negative result, 3 is a borderline result and 4 and 5 is a positive result.

The test system of experiment [2] is B.st. spores. The experiment in a line: Antibiotic detection test in spiked milk, Trizma/succinate culture of Example 7 (Table 5). Format: cell-based, Bacillus (Geobacillus) Stearothermophilus. The conditions noted are these: for 16 hr Result / % Pos (16 hr Result): 16 hours later; for % Pos (Result) / Result: immediately after test completion. Here is the method:
A Trizma/Succinate solution was prepared by adding 2.5 grams Trizma Base and 6 grams Succinate to 100 mL of reverse osmosis/deionized water (RO/DI Water) in a 125 mL flask. 40 milligrams of BCP (see example 1 for BCP preparation) was then added to a 50 mL conical tube and 25 mL of the Trizma/Succinate solution was added to the 40 milligrams BCP and mixed.
The media was prepared by dissolving 5 grams glucose and 1 gram Mueller Hinton Broth in 100 mL RO/DI Water. 1.2 mL of a 0.01 mg/mL solution of trimethoprim in RO/DI water was added to the media. 20 mL of the BCP/Trizma/Succinate preparation was added to the media and the media was sterile filtered through a 0.45 micron filter and cooled to 4 degrees C.
0.3 grams Difco Bacto-Agar (Item #0140-01), 0.225 NaCl and 17 mL of RO/DI water was combined and mixed and heated the mixture to 95° C. The mixture was removed from the heat and allowed it to cool to 75° C. and then 6 mL media (with BCP/Tris) was added and mixed for 5 minutes. The mixture was cooled to 57° C. and 2 mL spore (concentration of 1 billion cfu/mL) was added and mixed for 5 minutes. 0.200 mL was dispensed into the bottom of each vial.
In test operation 200 microliters of various milk samples, spiked with known concentrations of antibiotics, were pipetted into vials and incubated for the prescribed time (in this test 2 hours 30 minutes) and prescribed temperature (64 degrees C.+/−2 degrees C.). Results were recorded immediately after test completion and 16 hours later. Incubation was in various Charm Inctronic I incubators. Concentrations listed are in parts per billion (ppb). 4 samples were run at each concentration except 16 negative samples were run and 2 samples each for 3 ppb pen G and amoxicillin. Abbreviations are pencillin G (PenG); sulfamethazine (SMZ); sulfadimethoxine (SDM); tylosin (TY); gentamicin (G); oxytetracycline (OT); pirlimycin (Pirl); amoxicillin (Amox); ampicillin (Amp); cloxacillin (Clox); ceftiofur sodium (Ceft); cephaprin (Ceph); tilmicosin (Til); sulfadoxine (SDN); neomycin (Neo).

As for `CC1(C)S[C@@H]2[C@H](NC(=O)[C@H](N)c3ccc(O)cc3)C(=O)N2[C@H]1C(=O)O` [Amox, amoxicillin], in the experiment with B.st. spores [1] (milk spiked at 6 ppb), the “% Pos (Color 2)” value is given as 100%, the “Color 2” value is 5, the “% Pos (Color 1)” value turned out to be 100% and the “Color 1” value amounted to 5. Also, in the experiment on B.st. spores [2] (milk spiked at 6 ppb), the “16 hr Result” value is “Pos”, the “% Pos (16 hr Result)” value is on record as 100%, the “% Pos (Result)” value came to 100% and the Result entry is “Pos”.

As to `CC(=O)OCC1=C(C(=O)O)N2C(=O)[C@@H](NC(=O)CSc3ccncc3)[C@H]2SC1` [Ceph, cephaprin], in the experiment on B.st. spores [1] (milk spiked at 10 ppb), the “% Pos (Color 2)” value is reported as 100%, the “Color 2” value stood at 5, the “% Pos (Color 1)” value was determined as 100% and the “Color 1” value was found to be 5. Further, in the experiment with B.st. spores [2] (milk spiked at 10 ppb), the “16 hr Result” value is “Pos”, the “% Pos (16 hr Result)” value is recorded as 100%, the “% Pos (Result)” value came out at 100% and the Result result was “Pos”.

For `CC1(C)S[C@@H]2[C@H](NC(=O)[C@H](N)c3ccccc3)C(=O)N2[C@H]1C(=O)O` [Amp, ampicillin], in the experiment with B.st. spores [1] (milk spiked at 5 ppb), the “% Pos (Color 2)” value is recorded as 100%, the “Color 2” value was 4, the “% Pos (Color 1)” value worked out at 100% and the “Color 1” value is 5. In addition, in the experiment on B.st. spores [2] (milk spiked at 5 ppb), the “16 hr Result” value is given as “Pos”, the “% Pos (16 hr Result)” value is 100%, the “% Pos (Result)” value amounted to 100% and the Result result is on record as “Pos”.

On to `COc1ncnc(NS(=O)(=O)c2ccc(N)cc2)c1OC` [SDN, sulfadoxine], for which, in the experiment on B.st. spores [1] (milk spiked at 100 ppb), the “% Pos (Color 2)” value was 100%, the “Color 2” value is listed as 4, the “% Pos (Color 1)” value is given as 100% and the “Color 1” value is on record as 5. In the experiment with B.st. spores [2] (milk spiked at 100 ppb), the “16 hr Result” value was “Pos”, the “% Pos (16 hr Result)” value turned out to be 100%, the “% Pos (Result)” value was 100% and the Result entry is given as “Pos”.

For the molecule `NC[C@@H]1O[C@H](O[C@H]2[C@@H](O)[C@H](O[C@@H]3[C@@H](O)[C@H](N)C[C@H](N)[C@H]3O[C@H]3O[C@H](CN)[C@@H](O)[C@H](O)[C@H]3N)O[C@@H]2CO)[C@H](N)[C@@H](O)[C@@H]1O` [Neo, neomycin], in the experiment on B.st. spores [1] (milk spiked at 750 ppb), the “% Pos (Color 2)” value is 100%, the “Color 2” value is listed as 5, the “% Pos (Color 1)” value is recorded as 100% and the “Color 1” value amounted to 5. In the experiment with B.st. spores [2] (milk spiked at 750 ppb), the “16 hr Result” value is on record as “Pos”, the “% Pos (16 hr Result)” value is on record as 100%, the “% Pos (Result)” value was found to be 100% and the Result result is recorded as “Pos”.

With `Cc1onc(-c2ccccc2Cl)c1C(=O)N[C@@H]1C(=O)N2[C@@H]1SC(C)(C)[C@@H]2C(=O)O` [Clox, cloxacillin], in the experiment on B.st. spores [1] (milk spiked at 30 ppb), the “% Pos (Color 2)” value is listed as 100%, the “Color 2” value was determined as 5, the “% Pos (Color 1)” value is 100% and the “Color 1” value is 4. In the experiment with B.st. spores [1] (milk spiked at 50 ppb), the “% Pos (Color 2)” value is reported as 100%, the “Color 2” value was 5, the “% Pos (Color 1)” value came out at 100% and the “Color 1” value worked out at 5. Further, in the experiment on B.st. spores [2] (milk spiked at 30 ppb), the “16 hr Result” value was “Pos”, the “% Pos (16 hr Result)” value was determined as 100%, the “% Pos (Result)” value worked out at 100% and the Result entry is reported as “Pos”. In addition, in the experiment with B.st. spores [2] (milk spiked at 50 ppb), the “16 hr Result” value was “Pos”, the “% Pos (16 hr Result)” value came out at 100%, the “% Pos (Result)” value stood at 100% and the Result result is on record as “Pos”.

Turning to `CC[C@@H]1CCN[C@H](C(=O)N[C@@H]([C@H]2O[C@H](SC)[C@H](O)[C@@H](O)[C@H]2O)[C@H](C)Cl)C1` [Pirl, pirlimycin], in the experiment with B.st. spores [1] (milk spiked at 100 ppb), the “% Pos (Color 2)” value is 100%, the “Color 2” value is 4, the “% Pos (Color 1)” value was 100% and the “Color 1” value stood at 4. For the same molecule, in the experiment with B.st. spores [1] (milk spiked at 200 ppb), the “% Pos (Color 2)” value came out at 100%, the “Color 2” value worked out at 5, the “% Pos (Color 1)” value was 100% and the “Color 1” value amounted to 5. Moreover, in the experiment on B.st. spores [2] (milk spiked at 100 ppb), the “16 hr Result” value is recorded as “Pos”, the “% Pos (16 hr Result)” value was found to be 100%, the “% Pos (Result)” value is reported as 100% and the Result result is reported as “Pos”. In addition, in the experiment with B.st. spores [2] (milk spiked at 200 ppb), the “16 hr Result” value was “Pos”, the “% Pos (16 hr Result)” value was determined as 100%, the “% Pos (Result)” value came out at 100% and the Result result is “Pos”.

On to `CO/N=C(\C(=O)N[C@@H]1C(=O)N2C(C(=O)O)=C(CSC(=O)c3ccco3)CS[C@H]12)c1csc(N)n1` [Ceft, ceftiofur sodium], for which, in the experiment on B.st. spores [1] (milk spiked at 50 ppb), the “% Pos (Color 2)” value amounted to 0%, the “Color 2” value is listed as 1, the “% Pos (Color 1)” value amounted to 0% and the “Color 1” value is on record as 1. In addition, in the experiment on B.st. spores [1] (milk spiked at 100 ppb), the “% Pos (Color 2)” value turned out to be 0%, the “Color 2” value was 2, the “% Pos (Color 1)” value amounted to 0% and the “Color 1” value is 2. Moreover, in the experiment with B.st. spores [2] (milk spiked at 50 ppb), the “16 hr Result” value was “Pos”, the “% Pos (16 hr Result)” value came to 100%, the “% Pos (Result)” value is reported as 100% and the Result entry is reported as “Pos”. In the experiment with B.st. spores [2] (milk spiked at 100 ppb), the “16 hr Result” value is on record as “Pos”, the “% Pos (16 hr Result)” value turned out to be 100%, the “% Pos (Result)” value was 100% and the Result result is “Pos”.

Consider `CC[C@H]1OC(=O)C[C@@H](O)[C@H](C)[C@@H](O[C@@H]2O[C@H](C)[C@@H](O)[C@H](N(C)C)[C@H]2O)[C@@H](CCN2C[C@H](C)C[C@H](C)C2)C[C@@H](C)C(=O)/C=C/C(C)=C/[C@@H]1CO[C@@H]1O[C@H](C)[C@@H](O)[C@@H](OC)[C@H]1OC` [Til, tilmicosin], for which, in the experiment on B.st. spores [1] (milk spiked at 80 ppb), the “% Pos (Color 2)” value worked out at 100%, the “Color 2” value came to 5, the “% Pos (Color 1)” value came to 100% and the “Color 1” value came to 5. Also, in the experiment on B.st. spores [2] (milk spiked at 80 ppb), the “16 hr Result” value is recorded as “Pos”, the “% Pos (16 hr Result)” value is recorded as 100%, the “% Pos (Result)” value worked out at 100% and the Result entry is on record as “Pos”.
